The values below come from ChEMBL document CHEMBL5214952, “Unique iminotetrahydroberberine-corbelled metronidazoles as potential membrane active broad-spectrum antibacterial agents” (Bioorg Med Chem Lett, 2022).

SMILES strings stand for the structures. In brackets after ≈: the same amount, converted by molar mass. Activity calls are given as the source filed them.

The test system of assay [1] is Staphylococcus aureus. In words: Antibacterial activity against Staphylococcus aureus ATCC 29213 assessed as inhibition of bacterial growth by CLSI based continuous dilution method. The assay is classed as functional.
The subject of assay [2] is Staphylococcus aureus. In words: Antibacterial activity against methicillin-resistant Staphylococcus aureus assessed as inhibition of bacterial growth by CLSI based continuous dilution method. The class given is functional.
The subject of a further assay is Enterococcus faecalis. As to the kind of experiment: Antibacterial activity against Enterococcus faecalis assessed as inhibition of bacterial growth by CLSI based continuous dilution method. The assay is classed as functional.
Assay [3] relates to Staphylococcus aureus. As to the kind of experiment: Antibacterial activity against Staphylococcus aureus assessed as inhibition of bacterial growth by CLSI based continuous dilution method. The class given is functional.
For assay [4], the system named is Staphylococcus aureus. In words: Antibacterial activity against Staphylococcus aureus ATCC 25923 assessed as inhibition of bacterial growth by CLSI based continuous dilution method. The class given is functional.
The subject of a further assay is Klebsiella pneumoniae. As to the kind of experiment: Antibacterial activity against Klebsiella pneumoniae assessed as inhibition of bacterial growth by CLSI based continuous dilution method. The class given is functional.
Assay [5] concerns Escherichia coli. In words: Antibacterial activity against Escherichia coli assessed as inhibition of bacterial growth by CLSI based continuous dilution method. The assay is classed as functional.
For assay [6], the system named is Escherichia coli. As to the kind of experiment: Antibacterial activity against Escherichia coli ATCC 25922 assessed as inhibition of bacterial growth by CLSI based continuous dilution method. The assay is classed as functional.
The subject of assay [7] is Pseudomonas aeruginosa. In words: Antibacterial activity against Pseudomonas aeruginosa assessed as inhibition of bacterial growth by CLSI based continuous dilution method. The class given is functional.
The subject of assay [8] is Pseudomonas aeruginosa. As to the kind of experiment: Antibacterial activity against Pseudomonas aeruginosa ATCC 27853 assessed as inhibition of bacterial growth by CLSI based continuous dilution method. The class given is functional.
For a further assay, the system named is Acinetobacter baumannii. In words: Antibacterial activity against Acinetobacter baumannii assessed as inhibition of bacterial growth by CLSI based continuous dilution method. The assay is classed as functional.
In the next assay the test system is Aspergillus fumigatus. As to the kind of experiment: Antifungal activity against Aspergillus fumigatus assessed as inhibition of fungal growth by CLSI based continuous dilution method. The assay is classed as functional, organism-based.
For assay [9], the system named is Pseudomonas aeruginosa. As to the kind of experiment: Induction of drug resistance in Pseudomonas aeruginosa assessed as reduction in susceptibility measured after 6 passages. The class given is functional.
Assay [10] concerns Pseudomonas aeruginosa. In words: Induction of drug resistance in Pseudomonas aeruginosa assessed as fold increase in MIC measured after 11 passages. The assay is classed as functional.

For `CCCCCO/N=C/c1cc(OC)c(OCC(O)Cn2c([N+](=O)[O-])cnc2C)c2c1CC1c3cc4c(cc3CCN1C2)OCO4` (stereo not drawn), the minimum inhibitory concentration (MIC) in the assay with Staphylococcus aureus [1], in the assay with Staphylococcus aureus [2], in the assay on Enterococcus faecalis, with Staphylococcus aureus [3], in the assay with Staphylococcus aureus [4] and in the assay with Klebsiella pneumoniae was 824 µM (≈ 512 µg/mL) throughout. Also, the minimum inhibitory concentration (MIC) (in general, the smallest concentration in the dilution series that meets the test's criterion for growth inhibition) in the assay on Escherichia coli [5] was 824 µM (≈ 512 µg/mL); in the assay on Escherichia coli [6], 206 µM (≈ 128 µg/mL); in the assay with Pseudomonas aeruginosa [7], 824 µM (≈ 512 µg/mL); in the assay with Pseudomonas aeruginosa [8], 824 µM (≈ 512 µg/mL); with Acinetobacter baumannii, 206 µM (≈ 128 µg/mL). Further, the result with Aspergillus fumigatus was Active.
In the case of `CCCO/N=C/c1cc(OC)c(OCC(O)Cn2c([N+](=O)[O-])cnc2C)c2c1CC1c3cc4c(cc3CCN1C2)OCO4` (stereo not drawn), the minimal inhibitory concentration (MIC) in the assay on Staphylococcus aureus [1] was determined as 863 µM (≈ 512 µg/mL); in the assay with Staphylococcus aureus [2], 863 µM (≈ 512 µg/mL); in the assay on Enterococcus faecalis it was 863 µM (≈ 512 µg/mL); in the assay with Staphylococcus aureus [3] it was 863 µM (≈ 512 µg/mL); in the assay on Staphylococcus aureus [4] it was 215 µM (≈ 128 µg/mL); in the assay on Klebsiella pneumoniae, 863 µM (≈ 512 µg/mL). Moreover, the minimum inhibitory concentration (MIC) in the assay with Escherichia coli [5] stood at 863 µM (≈ 512 µg/mL); in the assay with Escherichia coli [6] it was 215 µM (≈ 128 µg/mL); in the assay with Pseudomonas aeruginosa [7] it was 863 µM (≈ 512 µg/mL); in the assay on Pseudomonas aeruginosa [8], 863 µM (≈ 512 µg/mL); in the assay on Acinetobacter baumannii it was 863 µM (≈ 512 µg/mL). For the same molecule, the result in the assay with Aspergillus fumigatus was Active.
As for `CCCCO/N=C/c1cc(OC)c(OCC(O)Cn2c([N+](=O)[O-])cnc2C)c2c1CC1c3cc4c(cc3CCN1C2)OCO4` (stereo not drawn), the MIC in the assay with Staphylococcus aureus [1], with Staphylococcus aureus [2], with Enterococcus faecalis, in the assay on Staphylococcus aureus [3], with Staphylococcus aureus [4] and in the assay with Klebsiella pneumoniae was 843 µM (≈ 512 µg/mL) throughout. In addition, the MIC in the assay with Escherichia coli [5], in the assay with Escherichia coli [6], with Pseudomonas aeruginosa [7], with Pseudomonas aeruginosa [8] and in the assay on Acinetobacter baumannii was 843 µM (≈ 512 µg/mL) throughout. Further, the outcome in the assay with Aspergillus fumigatus was Active.
In the case of `CO/N=C/c1cc(OC)c(OCC(O)Cn2c([N+](=O)[O-])cnc2C)c2c1CC1c3cc4c(cc3CCN1C2)OCO4` (stereo not drawn), the MIC was found to be 905 µM (≈ 512 µg/mL) in the assay on Staphylococcus aureus [1]; 905 µM (≈ 512 µg/mL) in the assay with Staphylococcus aureus [2]; 226 µM (≈ 128 µg/mL) in the assay with Enterococcus faecalis; 452 µM (≈ 256 µg/mL) in the assay with Staphylococcus aureus [3]; 56 µM (≈ 31.7 µg/mL) in the assay with Staphylococcus aureus [4]; 905 µM (≈ 512 µg/mL) with Klebsiella pneumoniae. Besides, the MIC with Escherichia coli [5] was found to be 905 µM (≈ 512 µg/mL); in the assay on Escherichia coli [6], 905 µM (≈ 512 µg/mL); in the assay with Pseudomonas aeruginosa [7], 905 µM (≈ 512 µg/mL); with Pseudomonas aeruginosa [8], 113 µM (≈ 63.9 µg/mL); in the assay with Acinetobacter baumannii it was 905 µM (≈ 512 µg/mL). The result with Aspergillus fumigatus was Active.
Regarding `CCn1cc(C(=O)O)c(=O)c2cc(F)c(N3CCNCC3)cc21` [NORFLOXACIN], the MIC with Staphylococcus aureus [1] came to 3 µM (≈ 0.958 µg/mL); in the assay with Staphylococcus aureus [2], 25 µM (≈ 7.98 µg/mL); with Enterococcus faecalis it was 6 µM (≈ 1.92 µg/mL); with Staphylococcus aureus [3] it was 25 µM (≈ 7.98 µg/mL); with Staphylococcus aureus [4] it was 100 µM (≈ 31.9 µg/mL); in the assay with Klebsiella pneumoniae it was 25 µM (≈ 7.98 µg/mL). Also, the MIC turned out to be 50 µM (≈ 16 µg/mL) with Escherichia coli [5]; 25 µM (≈ 7.98 µg/mL) in the assay on Escherichia coli [6]; 50 µM (≈ 16 µg/mL) with Pseudomonas aeruginosa [7]; 12 µM (≈ 3.83 µg/mL) with Pseudomonas aeruginosa [8]; 25 µM (≈ 7.98 µg/mL) in the assay with Acinetobacter baumannii. Moreover, in the assay on Pseudomonas aeruginosa [9], the outcome was Active. In the assay on Pseudomonas aeruginosa [10], the fold change (FC) came to 8.
As for `CCCCCCO/N=C/c1cc(OC)c(OCC(O)Cn2c([N+](=O)[O-])cnc2C)c2c1CC1c3cc4c(cc3CCN1C2)OCO4` (stereo not drawn), the MIC in the assay with Staphylococcus aureus [1] turned out to be 805 µM (≈ 512 µg/mL); in the assay with Staphylococcus aureus [2] it was 805 µM (≈ 512 µg/mL); with Enterococcus faecalis, 805 µM (≈ 512 µg/mL); with Staphylococcus aureus [3] it was 805 µM (≈ 512 µg/mL); in the assay on Staphylococcus aureus [4], 50 µM (≈ 31.8 µg/mL); in the assay on Klebsiella pneumoniae it was 805 µM (≈ 512 µg/mL). Besides, the minimal inhibitory concentration (MIC) in the assay with Escherichia coli [5], in the assay on Escherichia coli [6], in the assay on Pseudomonas aeruginosa [7], with Pseudomonas aeruginosa [8] and in the assay with Acinetobacter baumannii was 805 µM (≈ 512 µg/mL) throughout. Further, the outcome with Aspergillus fumigatus was Active.
Regarding `CCO/N=C/c1cc(OC)c(OCC(O)Cn2c([N+](=O)[O-])cnc2C)c2c1CC1c3cc4c(cc3CCN1C2)OCO4` (stereo not drawn), the MIC with Staphylococcus aureus [1], in the assay on Staphylococcus aureus [2], in the assay with Enterococcus faecalis, with Staphylococcus aureus [3], in the assay on Staphylococcus aureus [4] and in the assay on Klebsiella pneumoniae was 883 µM (≈ 512 µg/mL) in each case. In addition, the minimal inhibitory concentration (MIC) in the assay with Escherichia coli [5], with Escherichia coli [6], in the assay on Pseudomonas aeruginosa [7], with Pseudomonas aeruginosa [8] and with Acinetobacter baumannii was 883 µM (≈ 512 µg/mL) each time. For the same molecule, the result with Aspergillus fumigatus was Active.
Take `COc1cc(/C=N/OC(C)(C)C)c2c(c1OCC(O)Cn1c([N+](=O)[O-])cnc1C)CN1CCc3cc4c(cc3C1C2)OCO4` (stereo not drawn): the MIC with Staphylococcus aureus [1] was 211 µM (≈ 128 µg/mL); in the assay on Staphylococcus aureus [2] it was 52 µM (≈ 31.6 µg/mL); with Enterococcus faecalis, 211 µM (≈ 128 µg/mL); with Staphylococcus aureus [3], 105 µM (≈ 63.8 µg/mL); in the assay on Staphylococcus aureus [4] it was 52 µM (≈ 31.6 µg/mL); in the assay with Klebsiella pneumoniae, 52 µM (≈ 31.6 µg/mL). Further, the MIC in the assay with Escherichia coli [5] amounted to 422 µM (≈ 256 µg/mL); in the assay with Escherichia coli [6] it was 211 µM (≈ 128 µg/mL); in the assay with Pseudomonas aeruginosa [7], 211 µM (≈ 128 µg/mL); in the assay with Pseudomonas aeruginosa [8], 52 µM (≈ 31.6 µg/mL); with Acinetobacter baumannii, 211 µM (≈ 128 µg/mL). The result in the assay on Aspergillus fumigatus was Active.
In the case of `Cc1ncc([N+](=O)[O-])n1CCO` [METRONIDAZOLE], the minimum inhibitory concentration (MIC) was 1500 µM (≈ 256 µg/mL) with Staphylococcus aureus [1]; 1500 µM (≈ 256 µg/mL) in the assay with Staphylococcus aureus [2]; 748 µM (≈ 128 µg/mL) with Enterococcus faecalis; 1500 µM (≈ 256 µg/mL) in the assay with Staphylococcus aureus [3]; 1500 µM (≈ 256 µg/mL) in the assay on Staphylococcus aureus [4]; 374 µM (≈ 64 µg/mL) in the assay with Klebsiella pneumoniae. Moreover, the MIC with Escherichia coli [5], in the assay with Escherichia coli [6], in the assay with Pseudomonas aeruginosa [7], in the assay on Pseudomonas aeruginosa [8] and in the assay on Acinetobacter baumannii was 1500 µM (≈ 256 µg/mL) throughout.
Consider `C=CCO/N=C/c1cc(OC)c(OCC(O)Cn2c([N+](=O)[O-])cnc2C)c2c1CC1c3cc4c(cc3CCN1C2)OCO4` (stereo not drawn), for which the minimum inhibitory concentration (MIC) in the assay on Staphylococcus aureus [1] was 216 µM (≈ 128 µg/mL); with Staphylococcus aureus [2], 54 µM (≈ 31.9 µg/mL); with Enterococcus faecalis it was 216 µM (≈ 128 µg/mL); in the assay on Staphylococcus aureus [3], 108 µM (≈ 63.9 µg/mL); with Staphylococcus aureus [4], 54 µM (≈ 31.9 µg/mL); with Klebsiella pneumoniae, 54 µM (≈ 31.9 µg/mL). For the same molecule, the MIC in the assay on Escherichia coli [5] is 433 µM (≈ 256 µg/mL); with Escherichia coli [6] it was 216 µM (≈ 128 µg/mL); in the assay with Pseudomonas aeruginosa [7] it was 216 µM (≈ 128 µg/mL); in the assay on Pseudomonas aeruginosa [8] it was 54 µM (≈ 31.9 µg/mL); with Acinetobacter baumannii it was 216 µM (≈ 128 µg/mL). For the same molecule, in the assay on Aspergillus fumigatus, the outcome was Active.
In the case of `COc1cc(/C=N/O)c2c(c1OCC(O)Cn1c([N+](=O)[O-])cnc1C)CN1CCc3cc4c(cc3C1C2)OCO4` (stereo not drawn), the MIC in the assay on Staphylococcus aureus [1] was determined as 232 µM (≈ 128 µg/mL); in the assay on Staphylococcus aureus [2], 116 µM (≈ 64 µg/mL); with Enterococcus faecalis, 29 µM (≈ 16 µg/mL); with Staphylococcus aureus [3], 58 µM (≈ 32 µg/mL); with Staphylococcus aureus [4], 58 µM (≈ 32 µg/mL); in the assay on Klebsiella pneumoniae it was 464 µM (≈ 256 µg/mL). Further, the MIC came to 15 µM (≈ 8.27 µg/mL) in the assay on Escherichia coli [5]; 29 µM (≈ 16 µg/mL) with Escherichia coli [6]; 116 µM (≈ 64 µg/mL) in the assay on Pseudomonas aeruginosa [7]; 58 µM (≈ 32 µg/mL) in the assay with Pseudomonas aeruginosa [8]; 58 µM (≈ 32 µg/mL) with Acinetobacter baumannii. The outcome in the assay on Aspergillus fumigatus was Active.
Consider `COc1ccc2cc3[n+](cc2c1OC)CCc1cc2c(cc1-3)OCO2` [BERBERINE], for which the MIC with Staphylococcus aureus [1] is 190 µM; with Staphylococcus aureus [2], 761 µM; with Enterococcus faecalis, 380 µM; in the assay with Staphylococcus aureus [3] it was 380 µM; with Staphylococcus aureus [4] it was 380 µM; with Klebsiella pneumoniae, 190 µM. The minimum inhibitory concentration (MIC) with Escherichia coli [5] was found to be 380 µM; in the assay on Escherichia coli [6] it was 380 µM; in the assay on Pseudomonas aeruginosa [7], 1520 µM; in the assay with Pseudomonas aeruginosa [8], 380 µM; in the assay with Acinetobacter baumannii it was 190 µM.
